These are literature values, as cited in patent US6534508B2, “Methods and compositions for treating infection using optically pure (S)-lomefloxacin” (priority 1991, dated 2003).

Values after ≈ are worked out from the molar mass of the structure shown.

The data set concerns M. tuberculosis. Conditions: 11 strains resistant to conventional drug therapy; cited from earlier work.

In the case of `CCn1cc(C(=O)O)c(=O)c2cc(F)c(N3CCNC(C)C3)c(F)c21` (racemic) [LM, 1-ethyl-6,8-difluoro-1,4-dihydro-7-(3-methyl-lpiperazinyl)-4-oxo-3-quinolinecarboxylic acid], the MIC50 (as a rule, the lowest concentration that inhibits either 50% of growth or 50% of the strains tested, depending on the study) is 1.0 µg/mL (≈ 2.85 µM); the MIC90 (commonly an inhibitory concentration at the 90% level, which refers to growth in some studies and to a panel of isolates in others) was 1.1 µg/mL (≈ 3.13 µM).
